Source: ChEMBL document CHEMBL5370558, “Modifications of geldanamycin via CuAAC altering affinity to chaperone protein Hsp90 and cytotoxicity” (Eur J Med Chem, 2023)
Starred links: 1 amine or outer side, 2 acyl side, 3 side chain; linkers in the order of their positions; H or OH if unused. Positions of bridges follow the written chain, without caps; N, C: chain ends. Non-standard residues stand in square brackets, D forms with d. Residues, ends and D or L forms follow the SMILES beside them. Chains are numbered I, II in the order given. Actinocin(9to1) = Cc1c2oc3c(C)ccc(C(=O)[*:1])c3nc-2c(C(=O)[*:2])c(N)c1=O; NMeV = CN[C@H](C(=O)O)C(C)C; Sar = CNCC(=O)O

Columns and labels:
[1] = Selectivity index, ratio of IC50 for cytotoxicity against human HDF cells to IC50 for anticancer activity against human PC-3 cells; assay type: toxicity, cell-based; settings: HDF cells versus PC-3 cells, read-out: Ratio IC50
SK-BR-3 = test: Anticancer activity against human SK-BR-3 cells assessed as cell growth inhibition incubated for 72 hrs by SRB assay; assay type: functional, cell-based
SK-OV-3 = test: Anticancer activity against human SK-OV-3 cells assessed as cell growth inhibition incubated for 72 hrs by SRB assay; assay type: functional, cell-based
[2] = Selectivity index, ratio of IC50 for cytotoxicity against human HDF cells to IC50 for anticancer activity against human SK-BR-3 cells; assay type: toxicity, cell-based; settings: HDF cells versus SK-BR-3 cells, read-out: Ratio IC50
[3] = Cytotoxicity against human HDF cells assessed as cell growth inhibition incubated for 72 hrs by SRB assay; assay type: toxicity, cell-based; settings: HDF cells (normal human dermal fibroblasts, NHDF)
[4] = Selectivity index, ratio of IC50 for cytotoxicity against human HDF cells to IC50 for anticancer activity against human SK-OV-3 cells; assay type: cell-based; settings: HDF cells versus SK-OV-3 cells, read-out: Ratio IC50
PC-3 = test: Anticancer activity against human PC-3 cells assessed as cell growth inhibition incubated for 72 hrs by SRB assay; assay type: functional, cell-based

| Structure (SMILES) | selectivity ratio [1] | IC50 (SK-BR-3; Homo sapiens, SK-BR-3, 72 h) | IC50 (SK-OV-3; Homo sapiens, SK-OV-3, 72 h) | selectivity ratio [2] | IC50 at 72 h [3] | selectivity ratio [4] | IC50 (PC-3; Homo sapiens, PC-3, 72 h) | IC50 (SK-BR-3; sk-br-3) | IC50 (SK-OV-3; sk-ov-3) | IC50 (PC-3; pc-3) |
| --- | --- | --- | --- | --- | --- | --- | --- | --- | --- | --- |
| CO[C@H]1/C=C\C=C(/C)C(=O)NC2=CC(=O)C(NCc3cn(CCN4C(=O)c5ccccc5C4=O)nn3)=C(C[C@@H](C)C[C@H](OC)[C@H](O)[C@@H](C)/C=C(\C)[C@@H]1OC(N)=O)C2=O | 1.52 | 1.22 µM | 1.28 µM | 1.61 | 1.96 µM | 1.53 | 1.29 µM | – | – | – |
| CO[C@H]1/C=C\C=C(/C)C(=O)NC2=CC(=O)C(NCc3cn(Cc4ccc(F)cc4)nn3)=C(C[C@@H](C)C[C@H](OC)[C@H](O)[C@@H](C)/C=C(\C)[C@@H]1OC(N)=O)C2=O | 1.07 | 1.55 µM | 1.52 µM | 1.09 | 1.69 µM | 1.11 | 1.58 µM | – | – | – |
| CO[C@H]1/C=C\C=C(/C)C(=O)NC2=CC(=O)C(NCc3cn(Cc4ccsc4Br)nn3)=C(C[C@@H](C)C[C@H](OC)[C@H](O)[C@@H](C)/C=C(\C)[C@@H]1OC(N)=O)C2=O | 1.53 | 1.05 µM | 1.02 µM | 1.65 | 1.73 µM | 1.7 | 1.13 µM | – | – | – |
| CO[C@H]1/C=C\C=C(/C)C(=O)NC2=CC(=O)C(NCc3cn([C@@H]4OC[C@@H](OC(C)=O)[C@H](OC(C)=O)[C@H]4OC(C)=O)nn3)=C(C[C@@H](C)C[C@H](OC)[C@H](O)[C@@H](C)/C=C(\C)[C@@H]1OC(N)=O)C2=O | 1.3 | 4.36 µM | 3.73 µM | 1.05 | 4.59 µM | 1.23 | 3.52 µM | – | – | – |
| CO[C@H]1/C=C\C=C(/C)C(=O)NC2=CC(=O)C(NCc3cn(CC4OCCO4)nn3)=C(C[C@@H](C)C[C@H](OC)[C@H](O)[C@@H](C)/C=C(\C)[C@@H]1OC(N)=O)C2=O | 1.73 | 1.79 µM | 1.73 µM | 1.71 | 3.06 µM | 1.77 | 1.77 µM | – | – | – |
| CO[C@H]1/C=C\C=C(/C)C(=O)NC2=CC(=O)C(NCc3cn(Cc4ccccc4I)nn3)=C(C[C@@H](C)C[C@H](OC)[C@H](O)[C@@H](C)/C=C(\C)[C@@H]1OC(N)=O)C2=O | 2.37 | 0.38 µM | 0.39 µM | 2.55 | 0.97 µM | 2.49 | 0.41 µM | – | – | – |
| CO[C@H]1/C=C\C=C(/C)C(=O)NC2=CC(=O)C(NCc3cn([C@@H]4O[C@H](CO)[C@@H](O[C@@H]5O[C@H](CO)[C@H](O)[C@H](O)[C@H]5O)[C@H](O)[C@H]4O)nn3)=C(C[C@@H](C)C[C@H](OC)[C@H](O)[C@@H](C)/C=C(\C)[C@@H]1OC(N)=O)C2=O | 1.45 | 2.85 µM | 2.84 µM | 1.44 | 4.11 µM | 1.45 | 2.83 µM | – | – | – |
| CO[C@H]1/C=C\C=C(/C)C(=O)NC2=CC(=O)C(NCc3cn([C@@H]4O[C@H](COCc5ccccc5)[C@@H](OCc5ccccc5)[C@H](OCc5ccccc5)[C@H]4NC(C)=O)nn3)=C(C[C@@H](C)C[C@H](OC)[C@H](O)[C@@H](C)/C=C(\C)[C@@H]1OC(N)=O)C2=O | 1.62 | 0.77 µM | 0.79 µM | 1.96 | 1.51 µM | 1.91 | 0.93 µM | – | – | – |
| COC(=O)C[C@H]1O[C@@H](n2cc(CNC3=C4C[C@@H](C)C[C@H](OC)[C@H](O)[C@@H](C)/C=C(\C)[C@H](OC(N)=O)[C@@H](OC)/C=C\C=C(/C)C(=O)NC(=CC3=O)C4=O)nn2)[C@H](O)[C@@H](O)[C@@H]1O | 1.65 | 1.41 µM | 1.47 µM | 1.55 | 2.19 µM | 1.49 | 1.33 µM | – | – | – |
| CO[C@H]1/C=C\C=C(/C)C(=O)NC2=CC(=O)C(NCCn3cc(C(=O)O)nn3)=C(C[C@@H](C)C[C@H](OC)[C@H](O)[C@@H](C)/C=C(\C)[C@@H]1OC(N)=O)C2=O | 2.06 | 0.81 µM | 0.87 µM | 2.21 | 1.79 µM | 2.06 | 0.87 µM | – | – | – |
| Cc1c2oc3c(C)ccc(C(=O)N[C@@H]4C(=O)N[C@H](C(C)C)C(=O)N5CCC[C@H]5C(=O)N(C)CC(=O)N(C)[C@@H](C(C)C)C(=O)O[C@@H]4C)c3nc-2c(C(=O)N[C@@H]2C(=O)N[C@H](C(C)C)C(=O)N3CCC[C@H]3C(=O)N(C)CC(=O)N(C)[C@@H](C(C)C)C(=O)O[C@@H]2C)c(N)c1=O [DACTINOMYCIN] (I: T[dV]P[Sar][NMeV] / II: T[dV]P[Sar][NMeV]; ester I:1-I:C, II:1-II:C; linker I:N-II:N via Actinocin(9to1)) | 2.3 | 0.68 µM | 0.62 µM | 2.4 | 1.63 µM | 2.63 | 0.71 µM | – | – | – |
| CO[C@H]1/C=C\C=C(/C)C(=O)NC2=CC(=O)C(NCc3cn(Cc4ccccc4)nn3)=C(C[C@@H](C)C[C@H](OC)[C@H](O)[C@@H](C)/C=C(\C)[C@@H]1OC(N)=O)C2=O | 2.46 | 0.5 µM | 0.63 µM | 2.56 | 1.28 µM | 2.03 | 0.52 µM | – | – | – |
| CO[C@H]1/C=C\C=C(/C)C(=O)NC2=CC(=O)C(NCc3cn([C@@H]4O[C@H](CO)[C@@H](O)[C@H](O)[C@H]4NC(C)=O)nn3)=C(C[C@@H](C)C[C@H](OC)[C@H](O)[C@@H](C)/C=C(\C)[C@@H]1OC(N)=O)C2=O | 1.16 | 1.75 µM | 1.86 µM | 1.85 | 2.13 µM | 1.15 | 1.84 µM | – | – | – |
| COC1=C2C[C@@H](C)C[C@H](OC)[C@H](O)[C@@H](C)/C=C(\C)[C@H](OC(N)=O)[C@@H](OC)/C=C\C=C(/C)C(=O)NC(=CC1=O)C2=O [GELDANAMYCIN] | – | – | – | – | 1.05 µM | – | – | 0.58 µM | 0.64 µM | 0.6 µM |
| CO[C@H]1/C=C\C=C(/C)C(=O)NC2=CC(=O)C(NCc3cn(CC=C(C)C)nn3)=C(C[C@@H](C)C[C@H](OC)[C@H](O)[C@@H](C)/C=C(\C)[C@@H]1OC(N)=O)C2=O | 1.15 | 2.03 µM | 2.16 µM | 1.57 | 3.18 µM | 1.47 | 2.77 µM | – | – | – |
| CO[C@H]1/C=C\C=C(/C)C(=O)NC2=CC(=O)C(NCc3cn(Cc4ccc(C#N)cc4)nn3)=C(C[C@@H](C)C[C@H](OC)[C@H](O)[C@@H](C)/C=C(\C)[C@@H]1OC(N)=O)C2=O | 2.09 | 0.93 µM | 0.94 µM | 1.91 | 1.78 µM | 1.89 | 0.85 µM | – | – | – |
| CO[C@H]1/C=C\C=C(/C)C(=O)NC2=CC(=O)C(NCCN=[N+]=[N-])=C(C[C@@H](C)C[C@H](OC)[C@H](O)[C@@H](C)/C=C(\C)[C@@H]1OC(N)=O)C2=O | 2.26 | 0.94 µM | 0.95 µM | 2.19 | 2.06 µM | 2.17 | 0.91 µM | – | – | – |
| CO[C@H]1/C=C\C=C(/C)C(=O)NC2=CC(=O)C(NCCn3cc(CC(=O)O)nn3)=C(C[C@@H](C)C[C@H](OC)[C@H](O)[C@@H](C)/C=C(\C)[C@@H]1OC(N)=O)C2=O | 1.83 | 2.84 µM | 2.68 µM | 1.37 | 3.88 µM | 1.45 | 2.12 µM | – | – | – |
| CO[C@H]1/C=C\C=C(/C)C(=O)NC2=CC(=O)C(NCc3cn([C@@H]4O[C@H](COC(C)=O)[C@H](OC(C)=O)[C@H](OC(C)=O)[C@H]4OC(C)=O)nn3)=C(C[C@@H](C)C[C@H](OC)[C@H](O)[C@@H](C)/C=C(\C)[C@@H]1OC(N)=O)C2=O | 1.07 | 0.77 µM | 0.78 µM | 1.29 | 0.97 µM | 1.24 | 0.91 µM | – | – | – |
| CO[C@H]1/C=C\C=C(/C)C(=O)NC2=CC(=O)C(NCc3cn([C@]4(C#N)O[C@H](COC(C)=O)[C@H](OC(C)=O)[C@H](OC(C)=O)[C@H]4OC(C)=O)nn3)=C(C[C@@H](C)C[C@H](OC)[C@H](O)[C@@H](C)/C=C(\C)[C@@H]1OC(N)=O)C2=O | 1.64 | 0.91 µM | 0.94 µM | 1.37 | 1.25 µM | 1.33 | 0.76 µM | – | – | – |
| CO[C@H]1/C=C\C=C(/C)C(=O)NC2=CC(=O)C(NCc3cn(CC4CCCCC4)nn3)=C(C[C@@H](C)C[C@H](OC)[C@H](O)[C@@H](C)/C=C(\C)[C@@H]1OC(N)=O)C2=O | 1.53 | 1.37 µM | 1.41 µM | 1.53 | 2.09 µM | 1.48 | 1.37 µM | – | – | – |
| CCN(CC)CCn1cc(CNC2=C3C[C@@H](C)C[C@H](OC)[C@H](O)[C@@H](C)/C=C(\C)[C@H](OC(N)=O)[C@@H](OC)/C=C\C=C(/C)C(=O)NC(=CC2=O)C3=O)nn1 | 1.88 | 0.59 µM | 0.52 µM | 1.63 | 0.96 µM | 1.85 | 0.51 µM | – | – | – |
| CO[C@H]1/C=C\C=C(/C)C(=O)NC2=CC(=O)C(NCc3cn(Cc4ccc(C(F)(F)F)cc4)nn3)=C(C[C@@H](C)C[C@H](OC)[C@H](O)[C@@H](C)/C=C(\C)[C@@H]1OC(N)=O)C2=O | 1.55 | 0.79 µM | 0.91 µM | 1.57 | 1.24 µM | 1.36 | 0.8 µM | – | – | – |
